# Test results: paper PMC13607727 (International Journal of Molecular Sciences, 2026)
# Where “and” joins values, the source holds several entries; their conditions need not be identical. Equal values may be shown once. Where a name gives a salt, the structure may show the parent alone. Read-outs that look alike come from different tables or passages of the source.
# Tests used:
# 2019-nCoV S protein = 2019-nCoV S protein (Severe acute respiratory syndrome coronavirus 2, UniProt P0DTC2); type: binding, SARS-CoV-2; conditions: for ΔTm: 100 µM
# 2019-nCoV S-RBD = 2019-nCoV S-RBD (Severe acute respiratory syndrome coronavirus 2, UniProt P0DTC2); type: binding, SARS-CoV-2
# HEK293T cells = type: cell-based
# [1] = target: 2019-nCoV S protein–hACE2 complex (Severe acute respiratory syndrome coronavirus 2, UniProt P0DTC2); type: cell-based, SARS-CoV-2; human
# 2019-nCoV pseudovirus = type: cell-based, SARS-CoV-2
# [2] = tested on: Delta (B.1.617.2) pseudovirus; type: cell-based, SARS-CoV-2
# Omicron BA.5 pseudovirus = type: cell-based, SARS-CoV-2
# [3] = read-out: KD (equilibrium dissociation constant)
# [4] = read-out: IC50 (concentration inducing 50% cell death)
Compound,Tm (2019-nCoV S protein) [°C],ΔTm (2019-nCoV S protein),Kd (2019-nCoV S-RBD; [3]) [µM],Cell viability (HEK293T cells),CETSA classification (2019-nCoV S protein),Fold-change ratio of soluble S-protein band intensity relative to controls (2019-nCoV S protein),Kd (2019-nCoV S-RBD; read-out: KD),Kd (2019-nCoV S-RBD; read-out: Mean KD ± SD) [µM],Reduction in S-protein pull-downs [1] [%],Reduction in hACE2 pull-downs [1] [%],Effect on pseudovirus entry (2019-nCoV pseudovirus),IC50 (2019-nCoV pseudovirus) [µM],Effect on pseudovirus entry [2],IC50 [2] [µM],Effect on pseudovirus entry (Omicron BA.5 pseudovirus),IC50 (Omicron BA.5 pseudovirus) [µM],CC50 (HEK293T cells; read-out: Cytotoxicity CC50) [µM],further results
angiotensin II [Ang II],55.4,+5.8 °C,30.7,above 90%,,,,,,,,,,,,,,Effect on S-RBD/hACE2 co-immunoprecipitation [1]: did not appreciably reduce
"CCCCCCCCC=CCCCCCCCC(=O)OCC(C[N+](C)(C)C)OC(=O)CCCCCCCC=CCCCCCCCC (centres unmarked) [DOTAP, DOTAP chloride]",,+9.1 °C,49.9,above 90%,CETSA-positive,3.49 ± 0.50,79 µM,64.5 ± 20.6,51.4,46.8,at 25 μM reduced the entry of 2019-nCoV and Omicron pseudoviruses,> 100,limited efficacy against the Delta variant,> 100,at 25 μM reduced the entry of 2019-nCoV and Omicron pseudoviruses,> 100,,
"CC(OC(=O)OC1CCCCC1)OC(=O)C1=C(CSc2nnnn2CC[NH+](C)C)CSC2C(NC(=O)Cc3csc(N)n3)C(=O)N12 (centres unmarked) [CTM-HCl, cefotiam hexetil hydrochloride]",,+2.2 °C,142,above 90%,CETSA-positive,1.64 ± 0.21,142 µM,142,32.5,7.9,reduced entry of the ancestral and Omicron strains in a concentration-dependent manner,94.6,marginal and detectable only at 50 μM,> 100,reduced entry of the ancestral and Omicron strains in a concentration-dependent manner,> 100,> 100,Selectivity Index (SI) (2019-nCoV pseudovirus): > 1.06
Bacitracin zinc [BZ],43.4,−6.1 °C,11.4,,,,,,61.8,95.7,,,,,,,,CC50 (HEK293T cells; [4]): 79.9 µM
melittin,,+0.7 °C,35,,did not meet the positive threshold,2.70 ± 0.52,57 µM and 34.1 µM and 56.8 µM,49.6 ± 12.2,85.1,65.8,reduced entry of all three pseudoviruses at 1.25 μM,1.83,reduced entry of all three pseudoviruses at 1.25 μM,1.99,reduced entry of all three pseudoviruses at 1.25 μM,> 1.25,2.3,CC50 (HEK293T cells; [4]): 2.3 µM; Selectivity Index (SI) (2019-nCoV pseudovirus): 1.26; Therapeutic index (SI) (2019-nCoV pseudovirus): ~ 1.2; Selectivity Index (SI) [2]: 1.16; Selectivity Index (SI) (Omicron BA.5 pseudovirus): < 1.84
DDAVP,48.9,−0.7 °C,,,,,,,,,,,,,,,,
CC(=O)NC1C(OC2c3ccc(c(Cl)c3)Oc3cc4cc(c3OC3OC(CO)C(O)C(O)C3NC(=O)CCCCCCC(C)C)Oc3ccc(cc3Cl)CC3NC(=O)C(N)c5ccc(O)c(c5)Oc5cc(O)cc(c5)C(NC3=O)C(=O)NC4C(=O)NC3C(=O)NC2C(=O)NC(C(=O)O)c2cc(O)cc(OC4OC(CO)C(O)C(O)C4O)c2-c2cc3ccc2O)OC(CO)C(O)C1O (centres unmarked) [teicoplanin],,−4.0 °C,,above 90%,did not meet the positive threshold,,,,52.2,54.4,effective against the ancestral strain at 25–50 μM,> 100,observed only at 100 μM,> 100,reduced Omicron pseudovirus entry in a concentration-dependent manner,> 100,> 100,
